For eight cell lines, relative viability results are on record in the supplement of paper PMC10307832.

Holding throughout (test): relative viability (nuclei count vs DMSO), 5 days (fraction); higher = more cells survive
Compound in the assay “AZD5582 + Olaparib”: C[C@@H](C(=O)N[C@@H](C1CCCCC1)C(=O)N2CCC[C@H]2C(=O)N[C@@H]3[C@@H](CC4=CC=CC=C34)OCC#CC#CCO[C@@H]5CC6=CC=CC=C6[C@@H]5NC(=O)[C@@H]7CCCN7C(=O)[C@H](C8CCCCC8)NC(=O)[C@H](C)NC)NC [AZD5582] + O=C(c1cc(Cc2n[nH]c(=O)c3ccccc23)ccc1F)N1CCN(C(=O)C2CC2)CC1 [Olaparib] (partner 8 µM)
The essentials: (§1)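 Relative viability equals treated-well nuclei counts divided by vehicle-well nuclei counts. Counts came from 4× images of lung cancer cell lines grown in 1536-well plates for 5 days after pin-tool dosing on the day after seeding. Dosing used one drug alone or a fixed anchor-drug dose plus five library-drug doses (not always all listed) in √10 steps, and values are medians of duplicate plates.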

Compound in assay [1]: Cn1nnc2c(C(N)=O)ncn2c1=O [Temozolomide] + C[C@]1(O)C[C@@H](c2nc(-c3ccc4ccc(-c5ccccc5)nc4c3)c3c(N)nccn32)C1 [Linsitinib] (partner 1 µM)
In a few lines: as §1

Compound in assay [2]: Cn1nnc2c(C(N)=O)ncn2c1=O [Temozolomide] + Nc1ncn([C@H]2C[C@H](O)[C@@H](CO)O2)c(=O)n1 [Decitabine] (partner 2 µM)
The essentials: as §1

Compound in the assay “AZD5582 + Luminespib”: C[C@@H](C(=O)N[C@@H](C1CCCCC1)C(=O)N2CCC[C@H]2C(=O)N[C@@H]3[C@@H](CC4=CC=CC=C34)OCC#CC#CCO[C@@H]5CC6=CC=CC=C6[C@@H]5NC(=O)[C@@H]7CCCN7C(=O)[C@H](C8CCCCC8)NC(=O)[C@H](C)NC)NC [AZD5582] + CCNC(=O)c1noc(-c2cc(C(C)C)c(O)cc2O)c1-c1ccc(CN2CCOCC2)cc1 [Luminespib] (partner 0.01 µM)
In a few lines:
as §1

Turning to 201T, the relative viability with AZD5582 + Olaparib (first compound 0.001581 µM) stood at 0.916; with AZD5582 + Olaparib (first compound 0.005 µM), 0.904; with AZD5582 + Olaparib (first compound 0.01581 µM), 0.778; with AZD5582 + Olaparib (first compound 0.05 µM), 0.989; in assay [1] (first compound 0.2 µM), 0.975; in assay [1] (first compound 0.6325 µM), 1.07. Further, the relative viability in assay [1] (first compound 2 µM) turned out to be 1.11; in assay [1] (first compound 6.325 µM), 1.04; in assay [1] (first compound 20 µM) it was 0.991; in assay [2] (first compound 0.2 µM) it was 0.832; in assay [2] (first compound 0.6325 µM) it was 0.877; in assay [2] (first compound 2 µM), 0.866. Moreover, the relative viability in assay [2] (first compound 6.325 µM) is 0.821; in assay [2] (first compound 20 µM), 0.843; with AZD5582 + Luminespib (first compound 0.001581 µM), 1.11; with AZD5582 + Luminespib (first compound 0.005 µM), 1.17; with AZD5582 + Luminespib (first compound 0.01581 µM) it was 0.99; with AZD5582 + Luminespib (first compound 0.05 µM) it was 1.23.

A549: the relative viability was found to be 0.283 with AZD5582 + Olaparib (first compound 0.001581 µM); 0.301 with AZD5582 + Olaparib (first compound 0.005 µM); 0.292 in the assay with AZD5582 + Olaparib (first compound 0.01581 µM); 0.36 in the assay with AZD5582 + Olaparib (first compound 0.05 µM); 0.348 in assay [1] (first compound 0.2 µM); 0.684 in assay [1] (first compound 0.6325 µM). The relative viability in assay [1] (first compound 2 µM) came out at 0.759; in assay [1] (first compound 6.325 µM), 0.517; in assay [1] (first compound 20 µM), 0.467; in assay [2] (first compound 0.2 µM), 0.314; in assay [2] (first compound 0.6325 µM) it was 0.184; in assay [2] (first compound 2 µM) it was 0.289. In addition, the relative viability in assay [2] (first compound 6.325 µM) stood at 0.246; in assay [2] (first compound 20 µM), 0.207.

A-427: the relative viability with AZD5582 + Olaparib (first compound 0.001581 µM) turned out to be 0.678; with AZD5582 + Olaparib (first compound 0.005 µM) it was 0.716; with AZD5582 + Olaparib (first compound 0.01581 µM), 0.729; with AZD5582 + Olaparib (first compound 0.05 µM), 0.59; in assay [1] (first compound 0.2 µM), 1.1; in assay [1] (first compound 0.6325 µM) it was 1.15. For the same cell line, the relative viability in assay [1] (first compound 2 µM) is 1.15; in assay [1] (first compound 6.325 µM), 0.948; in assay [1] (first compound 20 µM), 0.604; in assay [2] (first compound 0.2 µM) it was 0.565; in assay [2] (first compound 0.6325 µM) it was 0.538; in assay [2] (first compound 2 µM), 0.459. For the same cell line, the relative viability in assay [2] (first compound 6.325 µM) was found to be 0.443; in assay [2] (first compound 20 µM) it was 0.396; in the assay with AZD5582 + Luminespib (first compound 0.001581 µM) it was 0.665; in the assay with AZD5582 + Luminespib (first compound 0.005 µM) it was 0.845; with AZD5582 + Luminespib (first compound 0.01581 µM) it was 0.906; with AZD5582 + Luminespib (first compound 0.05 µM) it was 0.897.

On to ABC-1, for which the relative viability in the assay with AZD5582 + Olaparib (first compound 0.001581 µM) is 0.845; with AZD5582 + Olaparib (first compound 0.005 µM), 0.724; in the assay with AZD5582 + Olaparib (first compound 0.01581 µM), 0.891; with AZD5582 + Olaparib (first compound 0.05 µM) it was 0.976; in assay [1] (first compound 0.2 µM) it was 0.899; in assay [1] (first compound 0.6325 µM), 0.83. Also, the relative viability in assay [1] (first compound 2 µM) came out at 0.943; in assay [1] (first compound 6.325 µM), 0.716; in assay [1] (first compound 20 µM), 0.771; in assay [2] (first compound 0.2 µM), 0.931; in assay [2] (first compound 0.6325 µM), 0.878; in assay [2] (first compound 2 µM), 1.59. Also, the relative viability stood at 0.94 in assay [2] (first compound 6.325 µM); 1.24 in assay [2] (first compound 20 µM); 0.518 with AZD5582 + Luminespib (first compound 0.001581 µM); 0.243 in the assay with AZD5582 + Luminespib (first compound 0.005 µM); 0.369 with AZD5582 + Luminespib (first compound 0.05 µM).

Regarding BEN, the relative viability was determined as 1.09 with AZD5582 + Olaparib (first compound 0.001581 µM); 0.985 with AZD5582 + Olaparib (first compound 0.005 µM); 1.02 with AZD5582 + Olaparib (first compound 0.01581 µM); 1.17 with AZD5582 + Olaparib (first compound 0.05 µM); 0.752 in assay [1] (first compound 0.2 µM); 0.941 in assay [1] (first compound 0.6325 µM). The relative viability in assay [1] (first compound 2 µM) amounted to 0.997; in assay [1] (first compound 6.325 µM), 0.781; in assay [1] (first compound 20 µM) it was 0.707; in assay [2] (first compound 0.2 µM), 0.77; in assay [2] (first compound 0.6325 µM), 0.677; in assay [2] (first compound 2 µM) it was 0.808. Further, the relative viability in assay [2] (first compound 6.325 µM) is 0.7; in assay [2] (first compound 20 µM), 0.659; in the assay with AZD5582 + Luminespib (first compound 0.001581 µM), 0.332; with AZD5582 + Luminespib (first compound 0.005 µM), 0.325; with AZD5582 + Luminespib (first compound 0.01581 µM), 0.634; with AZD5582 + Luminespib (first compound 0.05 µM), 0.392.

CAL-12T: the relative viability in the assay with AZD5582 + Olaparib (first compound 0.001581 µM) was 0.558; in the assay with AZD5582 + Olaparib (first compound 0.005 µM), 0.534; with AZD5582 + Olaparib (first compound 0.01581 µM), 0.636; with AZD5582 + Olaparib (first compound 0.05 µM), 0.373; in assay [1] (first compound 0.2 µM), 0.627; in assay [1] (first compound 0.6325 µM), 0.799. Further, the relative viability in assay [1] (first compound 2 µM) was found to be 0.841; in assay [1] (first compound 6.325 µM), 0.778; in assay [1] (first compound 20 µM) it was 0.698; with AZD5582 + Luminespib (first compound 0.001581 µM), 0.192; in the assay with AZD5582 + Luminespib (first compound 0.005 µM), 0.298; in the assay with AZD5582 + Luminespib (first compound 0.01581 µM) it was 0.401. In addition, the relative viability in the assay with AZD5582 + Luminespib (first compound 0.05 µM) came out at 0.326.

On to COR-L23, for which the relative viability with AZD5582 + Olaparib (first compound 0.001581 µM) is 0.307; in the assay with AZD5582 + Olaparib (first compound 0.005 µM), 0.378; in the assay with AZD5582 + Olaparib (first compound 0.01581 µM), 0.32; in the assay with AZD5582 + Olaparib (first compound 0.05 µM) it was 0.329; in assay [1] (first compound 0.2 µM), 1.01; in assay [1] (first compound 0.6325 µM), 1.08. Also, the relative viability in assay [1] (first compound 2 µM) is 0.863; in assay [1] (first compound 6.325 µM), 0.994; in assay [1] (first compound 20 µM) it was 0.819; in assay [2] (first compound 0.2 µM), 0.452; in assay [2] (first compound 0.6325 µM), 0.493; in assay [2] (first compound 2 µM) it was 0.478. Further, the relative viability in assay [2] (first compound 6.325 µM) amounted to 0.419; in assay [2] (first compound 20 µM), 0.404; in the assay with AZD5582 + Luminespib (first compound 0.001581 µM) it was 0.635; in the assay with AZD5582 + Luminespib (first compound 0.005 µM), 0.739; with AZD5582 + Luminespib (first compound 0.01581 µM) it was 0.65; with AZD5582 + Luminespib (first compound 0.05 µM), 0.926.

As for COR-L 105, the relative viability amounted to 0.619 with AZD5582 + Olaparib (first compound 0.001581 µM); 0.673 in the assay with AZD5582 + Olaparib (first compound 0.005 µM); 0.729 in the assay with AZD5582 + Olaparib (first compound 0.01581 µM); 0.732 in the assay with AZD5582 + Olaparib (first compound 0.05 µM); 0.919 in assay [1] (first compound 0.2 µM); 1.01 in assay [1] (first compound 0.6325 µM). The relative viability in assay [1] (first compound 2 µM) was 1.03; in assay [1] (first compound 6.325 µM), 0.797; in assay [1] (first compound 20 µM), 0.7; in assay [2] (first compound 0.2 µM), 0.691; in assay [2] (first compound 0.6325 µM), 0.643; in assay [2] (first compound 2 µM) it was 0.649. The relative viability in assay [2] (first compound 6.325 µM) was found to be 0.739; in assay [2] (first compound 20 µM), 0.535; in the assay with AZD5582 + Luminespib (first compound 0.001581 µM), 0.619; with AZD5582 + Luminespib (first compound 0.005 µM) it was 0.728; with AZD5582 + Luminespib (first compound 0.01581 µM) it was 0.837; in the assay with AZD5582 + Luminespib (first compound 0.05 µM) it was 0.862.
